Reference: patent publication US11638709B2, “Rucaparib, Talazoparib, Veliparib, Olaparib and AZD 2461 for treating impaired skin wound healing” (AKRIBES BIOMEDICAL GMBH, priority 2017, dated 2023)

B1: PDGF: Platelet-derived growth factor, protein growth factor (Tonbo Biosciences) (protein, UniProt P01127 82-190, looked up)
Platelet-derived growth …: SLGSLTIAEPAMIAECKTRTEVFEISRRLIDRTNANFLVWPPCVEVQRCSGCCNNRNVQCRPTQVQLRPVQVRKIEIVRKKPIFKKATVTLEDHLACKCETVAAARPVT
modifications: PDGF-BB homodimer

How the values were obtained:
[1] = system: primary human dermal fibroblasts (HDF); test: Primary human dermal fibroblast (HDF) proliferation assay (2D) with or without wound exudate; format: cell-based; details: for fibroblast proliferation in the absence of WE: FIG. 11, 2D fibroblast culture without WE (control); for wound exudate-induced inhibition of fibroblast proliferation: FIG. 20, with wound exudate; for HDF proliferation with wound exudate #78, plus PDGF / HDF proliferation with wound exudate #78: FIG. 15; for HDF proliferation with wound exudate #78, plus PDGF: compound + PDGF 20 ng/ml in medium + WE #78; for HDF proliferation with wound exudate #78: compound in medium + WE #78; for effect on PDGF-induced induction of proliferation in the absence of WE: with PDGF
Method: (§1) Primary human dermal fibroblasts (HDF) were purchased from CELLnTEC, Bern. They were routinely grown in Dulbecco's modified Eagle's medium (DMEM) containing 10% FCS, 2 mM glutamine, and 100 U/ml penicillin/100 μg/ml streptomycin. Media, antibiotics, and glutamine were bought from Lonza. The cells were used at passage 5-15. Cells were trypsinized and seeded at 5000 cells/well in 200 μl into the inner wells of 96-well plates. The outer wells were loaded with sterile water. The cells were allowed to adhere overnight and then incubated for 72 hours at 37° C. under the following conditions: graded compound concentrations or 20 ng/ml PDGF-BB (Tonbo Biosciences) in the absence or presence of different dilutions of sterile-filtered WE in medium. For control samples, 200 μl medium was added instead of specific stimuli. Alternatively, the cells were seeded into 384-well plates at 2500 cells/well directly together with test compounds or growth factors and WE or medium in a total volume of […].
(§2) At the end of the 72-hour incubation period, supernatants were removed for the determination of IL-1ß, and the cells were fixed with 4% paraformaldehyde (Morphisto) for 15 minutes at room temperature and washed 3 times with PBS. A control plate was fixed after the overnight adherence of the cells (day 1) to determine the starting cell number.
Total cellular protein was determined as a measure of cell number by staining the fixed cells with sulforhodamine B (SRB, Sigma). A 0.4% SRB solution in 1% acetic acid was added to the wells for 30 minutes. The wells were then washed with 1% acetic acid until the wash solution remained colorless. […] The average absorbance of the sample representing the day 1 starting cell number (for 96-well plates) was subtracted from the absorbance values of the WE-treated cells.
All experiments were carried out in triplicate for each sample and concentration, and means±standard deviation (SD) were used for the evaluation of the experiment. Results are expressed as percentage of control values for unstimulated cells.
(§3) Low molecular weight compounds (see list in Table 1) were dissolved in DMSO (Bioreagent for cell culture, Sigma) at 10 mM or 100 mM and diluted at least 1:1000 in medium for cellular assays (final DMSO concentration ≤0.1%).
(§4) Cells were incubated with compounds for 72 hours in proliferation assays and up to 8 days for FDM assay (refreshed after 4 days). When compounds were tested for their effect on WE stimulation, the incubation of cells with compounds was started and ended simultaneously with WE-incubation.

[2] = system: primary human dermal fibroblasts (HDF); test: Fibroblast-derived matrix (FDM) formation assay (3D) with wound exudate; format: cell-based; details: for 3D fibroblast culture (FDM formation), effect of PARP inhibitors: FIG. 7, WE from patient #78; for 3D fibroblast-derived matrix formation assay, activity: FIGS. 9 and 10
Method: HDF cells were seeded at 5000 cells/well on day −3 into 96-well tissue culture plates (1250 cells/well for 384-well plates), which had been pre-coated for 1 hour at 37° C. with 0.2% gelatin solution (Sigma). When the cells reached confluence (=day 0), a matrix promoting supplement (vitamin C: 2-phospho-L-ascorbic acid trisodium salt, 100 μg/ml; Sigma) was added together with test samples containing PDGF-BB, TGF-ß1 or graded concentrations of compounds −/+WE as described for the HDF proliferation assay. After 4 days, medium was replaced by fresh vitamin C—and stimulus—as well as compound-containing medium, maintaining the conditions initiated on day 0. TGF-ß1 and PDGF-BB were included as positive controls to promote FDM formation and cell growth, respectively. After a total incubation time of 8 days, FDM production was measured in fixed cultures via SRB staining and evaluated as described above. In some cases, the experiment was stopped and evaluated already on day 4.
as §3, §4

[3] = system: IL-1ß secretion by primary human dermal fibroblasts; test: IL-1ß secretion in the HDF proliferation assay with wound exudate (ELISA); format: cell-based; details: FIG. 20
Method: as §2
IL-1ß levels were determined with a commercial ELISA kit. The amount of IL-1ß contained in the wound exudate added to the cells was subtracted from the total IL-ß in the supernatants in order to determine the cytokine secreted by the cells.

[4] = system: alpha-smooth muscle actin (α-SMA) in human dermal fibroblasts; test: Immunolocalization of alpha-smooth muscle actin in 2D HDF culture; format: cell-based; details: FIG. 16; absence of wound exudate; TGF-ß 20 ng/ml
Method: as §1
After fixation with paraformaldehyde, the cells were incubated for 1 hour at room temperature with a monoclonal mouse-anti-human antibody against alpha-smooth muscle actin (α-SMA) from e-Bioscience, washed 3 times with PBS and developed with an Alexa Fluor-labelled donkey-anti-mouse IgG (Molecular Probes). […]

PARP = details: cited from earlier work
PARP1 = PARP1 (Homo sapiens, UniProt P09874); details: cited from earlier work
Chain of PARP1 (P09874 whole entry, species assumed): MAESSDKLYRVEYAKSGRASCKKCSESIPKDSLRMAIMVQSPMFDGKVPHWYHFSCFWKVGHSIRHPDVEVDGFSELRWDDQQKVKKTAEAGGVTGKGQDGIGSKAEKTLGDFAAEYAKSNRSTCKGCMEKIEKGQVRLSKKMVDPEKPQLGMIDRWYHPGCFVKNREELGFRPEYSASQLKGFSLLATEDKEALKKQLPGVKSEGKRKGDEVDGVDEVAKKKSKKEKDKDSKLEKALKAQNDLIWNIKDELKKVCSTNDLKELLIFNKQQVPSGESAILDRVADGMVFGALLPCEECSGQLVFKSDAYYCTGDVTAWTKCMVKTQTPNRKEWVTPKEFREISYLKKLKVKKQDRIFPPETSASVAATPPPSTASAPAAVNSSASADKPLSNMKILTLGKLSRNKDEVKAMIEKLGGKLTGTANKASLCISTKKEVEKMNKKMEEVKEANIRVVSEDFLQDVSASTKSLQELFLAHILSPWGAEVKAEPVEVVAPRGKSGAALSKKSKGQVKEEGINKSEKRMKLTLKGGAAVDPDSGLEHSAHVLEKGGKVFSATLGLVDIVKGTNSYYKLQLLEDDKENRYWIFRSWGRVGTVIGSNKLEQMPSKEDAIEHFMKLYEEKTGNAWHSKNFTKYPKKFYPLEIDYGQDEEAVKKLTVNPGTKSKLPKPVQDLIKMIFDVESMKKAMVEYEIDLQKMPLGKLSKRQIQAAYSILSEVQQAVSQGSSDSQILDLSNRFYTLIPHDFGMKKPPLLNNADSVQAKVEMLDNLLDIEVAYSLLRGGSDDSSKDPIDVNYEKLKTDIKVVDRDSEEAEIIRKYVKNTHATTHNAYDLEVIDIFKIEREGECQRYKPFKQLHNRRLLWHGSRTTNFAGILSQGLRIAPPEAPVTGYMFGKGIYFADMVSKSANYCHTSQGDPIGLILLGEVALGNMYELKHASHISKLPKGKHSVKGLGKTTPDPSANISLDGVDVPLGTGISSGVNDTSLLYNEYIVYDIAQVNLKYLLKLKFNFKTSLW

Row | Molecule | 2D fibroblast culture (HDF proliferation), effect of PARP inhibitors ([1]; FIG. 8, WE from patient #78) | wound exudate-induced inhibition of fibroblast proliferation [1] | 3D fibroblast culture (FDM formation), effect of PARP inhibitors [2] | wound exudate-induced IL-1ß secretion [3] | 2D fibroblast culture (HDF proliferation), effect of PARP inhibitors ([1]; FIG. 9, WE from patient #43) | 2D fibroblast culture (HDF proliferation), effect of PARP inhibitors ([1]; FIG. 10, WE from patient #78) | other results
1 | COC1CCN(C(=O)c2cc(Cc3n[nH]c(=O)c4ccccc34)ccc2F)CC1 [AZD-2461] | strong and consistent positive effect | enhanced cell proliferation | strong and consistent positive effect | reducing IL-1ß secretion |  |  | fibroblast proliferation in the absence of WE [1]: either no effect on fibroblast proliferation in the absence of wound exudate, or only a marginal effect
2 | TGF-ß: Transforming growth factor beta |  |  |  |  |  |  | staining for myofibroblast marker alpha-smooth muscle actin (α-SMA) [4]: increases the staining for the myofibroblast marker alpha-smooth muscle actin (α-SMA)
3 | 2-phospho-L-ascorbic acid trisodium salt [vitamin C] |  |  |  |  |  |  | 2D fibroblast culture, enhancement of PARP inhibitor compound effects by co-agent ([1]; FIG. 12, WE from patient #78, dexamethasone 3 nM, vitamin C 100 μg/ml): synergistically enhance the PARP inhibitor compound effects; 2D fibroblast culture, enhancement of PARP inhibitor compound effects by co-agent ([1]; FIG. 13, WE from patient #43): synergistically enhance the PARP inhibitor compound effects
4 | NC(=O)c1cccc2cn(-c3ccc([C@@H]4CCCNC4)cc3)nc12 [niraparib] | does not show any activity | did not show any of these effects | does not show any activity | did not show any of these effects |  |  | inhibits PARP with an 1050 (PARP): low nM range
5 | CNCc1ccc(-c2[nH]c3cc(F)cc4c3c2CCNC4=O)cc1 [Rucaparib] | strong and consistent positive effect | enhanced cell proliferation | strong and consistent positive effect | reducing IL-1ß secretion | strong and consistent positive effect | strong and consistent positive effect | fibroblast proliferation in the absence of WE [1]: either no effect on fibroblast proliferation in the absence of wound exudate, or only a marginal effect; HDF proliferation with wound exudate #78, plus PDGF [1]: even further enhanced by the addition of PDGF; HDF proliferation with wound exudate #78 [1]: dose-dependent increase of HDF proliferation; effect on PDGF-induced induction of proliferation in the absence of WE ([1]; no WE): either had no effect on PDGF-induced induction of proliferation or showed inhibition of the PDGF effect
6 | Oc1cccc2c(O)nccc12 [1,5-IQD, 1,5-Isoquinolinediol] |  |  |  |  | either inactive or exhibit a very weak activity | either inactive or exhibit a very weak activity | 3D fibroblast-derived matrix formation assay, activity [2]: either inactive or only weakly active
7 | CN(C)Cc1ccc(-c2nc3cccc4c3n2CCNC4=O)cc1 [AG-14351] | only a very weak effect at a concentration of 10 μM | enhanced cell proliferation | only a very weak effect at a concentration of 10 μM | reducing IL-1ß secretion |  |  | inhibits PARP1 with an 1050 (PARP1): low nM range
8 | O=C(c1cc(Cc2n[nH]c(=O)c3ccccc23)ccc1F)N1CCN(C(=O)C2CC2)CC1 [Olaparib] | strong and consistent positive effect | enhanced cell proliferation | strong and consistent positive effect | reducing IL-1ß secretion |  |  | fibroblast proliferation in the absence of WE [1]: either no effect on fibroblast proliferation in the absence of wound exudate, or only a marginal effect; HDF proliferation with wound exudate #78, plus PDGF [1]: even further enhanced by the addition of PDGF; HDF proliferation with wound exudate #78 [1]: dose-dependent increase of HDF proliferation; effect on PDGF-induced induction of proliferation in the absence of WE ([1]; no WE): either had no effect on PDGF-induced induction of proliferation or showed inhibition of the PDGF effect
9 | NC(=O)c1cccc(N)c1 [3-AB, 3-Aminobenzamide] |  | did not show any of these effects |  | did not show any of these effects | either inactive or exhibit a very weak activity | either inactive or exhibit a very weak activity | 3D fibroblast-derived matrix formation assay, activity [2]: either inactive or only weakly active
10 | CN(C)CC(=O)Nc1ccc2[nH]c(=O)c3ccccc3c2c1.Cl [PJ-34] |  |  |  |  | either inactive or exhibit a very weak activity | either inactive or exhibit a very weak activity | 2D fibroblast culture, PARP inhibitor effect ± dexamethasone ± Vit. C ([1]; FIG. 12, WE from patient #78): only a weak effect; 2D fibroblast culture, PARP inhibitor effect ± dexamethasone ± Vit. C ([1]; FIG. 13, WE from patient #43): only a weak effect; 3D fibroblast-derived matrix formation assay, activity [2]: either inactive or only weakly active
11 | B1 |  |  |  |  |  |  | HDF proliferation in the presence of WE #78 ([1]; FIG. 14, WE #78, veliparib 10 μM, talazoparib 1 μM, PDGF 20 ng/ml): has no effect; HDF proliferation in the absence of WE ([1]; FIG. 14, no WE, veliparib 10 μM, talazoparib 1 μM, PDGF 20 ng/ml): induces HDF proliferation; HDF proliferation with wound exudate #78 [1]: inactive
